Patent US6423689B1, “Peptidyl calcium channel blockers” (Warner-Lambert Company, priority 1997, dated 2002)

Columns and labels:
[1] = test system: L-type Ca2+ channels in GH3 cells; assay: Inhibition of L-type calcium flux in GH3 cells (Indo-1 fluorescence); type: cell-based, rat
Procedure: Measurement of L-type Ca^2+ Channel Blocking Potencies of Compounds in GH3 Cells Using the Fluorescent Ca^2+ Indicator Indo-1
The GH3 rat pituitary cell line was obtained from the American Type Culture Collection (Rockville, Md.). Cells were grown in Ham's F-10 medium with 15% horse serum, 2.5% fetal bovine serum (FBS), and […] (Gibco, Gaithersburg, Md.). Confluent cells were detached using 0.5 mM EDTA and loaded with 5 μM Indo-acetoxymethyl ester (Molecular Probes, Eugene, Oreg.) in 1% bovine serum albumin (BSA) containing assay buffer (10 mM HEPES/Tris pH 7.4 in Hank's Balanced Salt Solution without bicarbonate or phenol red) for 60 minutes at 30° C. Loaded cells were washed twice, resuspended (approx. 10^7 cells/mL) in assay buffer containing 0.5% BSA, and kept on ice until use (<3 hrs). Different concentrations of the test compounds (60 μL in dimethyl sulfoxide) or controls were added to 5.94 mL of assay buffer containing approximately 3×10^6 loaded cells, and the samples were incubated for 10 minutes at 30° C. After incubation, samples were aliquoted into 3 cuvettes, and their fluorescence was measured with a Photon Technology International (PTI, South Brunswick, N.J.) Model RF-F3004 spectrofluorometer thermostatted at 30° C. Excitation was set at 350 nm and dual emissions were recorded at 400 and 490 nm. Basal emission signals were acquired for 20 seconds, followed by the depolarization of cells by the addition of 200 μL of a stimulation solution (1 M KCl, 68 mM CaCl2) to the stirred cuvette. Emission signals were acquired for an additional 50 seconds after depolarization. Ratio of emission signals (F400 nm/F490 nm), which is proportional to intracellular Ca^2+ concentration, was plotted against time, and the difference between the emission ratio 50 seconds after stimulation and its basal value (before stimulation) was determined. Values obtained in this way were considered as measures of depolarization-induced Ca-flux through L-type channels and plotted as a function of drug concentration. IC50 values of test compounds were calculated by fitting a four-parameter logistic function to the data using the least squares method.

[2] = molecular target: T1, N-type Ca2+ channels in IMR-32 cells (Homo sapiens, UniProt Q00975); assay: Inhibition of N-type calcium flux in IMR-32 cells (Indo-1 fluorescence, nitrendipine present); type: cell-based; conditions: for inhibition at 1 µM / inhibition at 10 µM: IMR-32; for IC50: IMR-32 cells, 5 μM nitrendipine, K+ depolarization
T1 construct: host or cells: IMR-32 cells, differentiated with dibutyryl cAMP and bromodeoxyuridine
T1 sequence (Q00975 whole entry): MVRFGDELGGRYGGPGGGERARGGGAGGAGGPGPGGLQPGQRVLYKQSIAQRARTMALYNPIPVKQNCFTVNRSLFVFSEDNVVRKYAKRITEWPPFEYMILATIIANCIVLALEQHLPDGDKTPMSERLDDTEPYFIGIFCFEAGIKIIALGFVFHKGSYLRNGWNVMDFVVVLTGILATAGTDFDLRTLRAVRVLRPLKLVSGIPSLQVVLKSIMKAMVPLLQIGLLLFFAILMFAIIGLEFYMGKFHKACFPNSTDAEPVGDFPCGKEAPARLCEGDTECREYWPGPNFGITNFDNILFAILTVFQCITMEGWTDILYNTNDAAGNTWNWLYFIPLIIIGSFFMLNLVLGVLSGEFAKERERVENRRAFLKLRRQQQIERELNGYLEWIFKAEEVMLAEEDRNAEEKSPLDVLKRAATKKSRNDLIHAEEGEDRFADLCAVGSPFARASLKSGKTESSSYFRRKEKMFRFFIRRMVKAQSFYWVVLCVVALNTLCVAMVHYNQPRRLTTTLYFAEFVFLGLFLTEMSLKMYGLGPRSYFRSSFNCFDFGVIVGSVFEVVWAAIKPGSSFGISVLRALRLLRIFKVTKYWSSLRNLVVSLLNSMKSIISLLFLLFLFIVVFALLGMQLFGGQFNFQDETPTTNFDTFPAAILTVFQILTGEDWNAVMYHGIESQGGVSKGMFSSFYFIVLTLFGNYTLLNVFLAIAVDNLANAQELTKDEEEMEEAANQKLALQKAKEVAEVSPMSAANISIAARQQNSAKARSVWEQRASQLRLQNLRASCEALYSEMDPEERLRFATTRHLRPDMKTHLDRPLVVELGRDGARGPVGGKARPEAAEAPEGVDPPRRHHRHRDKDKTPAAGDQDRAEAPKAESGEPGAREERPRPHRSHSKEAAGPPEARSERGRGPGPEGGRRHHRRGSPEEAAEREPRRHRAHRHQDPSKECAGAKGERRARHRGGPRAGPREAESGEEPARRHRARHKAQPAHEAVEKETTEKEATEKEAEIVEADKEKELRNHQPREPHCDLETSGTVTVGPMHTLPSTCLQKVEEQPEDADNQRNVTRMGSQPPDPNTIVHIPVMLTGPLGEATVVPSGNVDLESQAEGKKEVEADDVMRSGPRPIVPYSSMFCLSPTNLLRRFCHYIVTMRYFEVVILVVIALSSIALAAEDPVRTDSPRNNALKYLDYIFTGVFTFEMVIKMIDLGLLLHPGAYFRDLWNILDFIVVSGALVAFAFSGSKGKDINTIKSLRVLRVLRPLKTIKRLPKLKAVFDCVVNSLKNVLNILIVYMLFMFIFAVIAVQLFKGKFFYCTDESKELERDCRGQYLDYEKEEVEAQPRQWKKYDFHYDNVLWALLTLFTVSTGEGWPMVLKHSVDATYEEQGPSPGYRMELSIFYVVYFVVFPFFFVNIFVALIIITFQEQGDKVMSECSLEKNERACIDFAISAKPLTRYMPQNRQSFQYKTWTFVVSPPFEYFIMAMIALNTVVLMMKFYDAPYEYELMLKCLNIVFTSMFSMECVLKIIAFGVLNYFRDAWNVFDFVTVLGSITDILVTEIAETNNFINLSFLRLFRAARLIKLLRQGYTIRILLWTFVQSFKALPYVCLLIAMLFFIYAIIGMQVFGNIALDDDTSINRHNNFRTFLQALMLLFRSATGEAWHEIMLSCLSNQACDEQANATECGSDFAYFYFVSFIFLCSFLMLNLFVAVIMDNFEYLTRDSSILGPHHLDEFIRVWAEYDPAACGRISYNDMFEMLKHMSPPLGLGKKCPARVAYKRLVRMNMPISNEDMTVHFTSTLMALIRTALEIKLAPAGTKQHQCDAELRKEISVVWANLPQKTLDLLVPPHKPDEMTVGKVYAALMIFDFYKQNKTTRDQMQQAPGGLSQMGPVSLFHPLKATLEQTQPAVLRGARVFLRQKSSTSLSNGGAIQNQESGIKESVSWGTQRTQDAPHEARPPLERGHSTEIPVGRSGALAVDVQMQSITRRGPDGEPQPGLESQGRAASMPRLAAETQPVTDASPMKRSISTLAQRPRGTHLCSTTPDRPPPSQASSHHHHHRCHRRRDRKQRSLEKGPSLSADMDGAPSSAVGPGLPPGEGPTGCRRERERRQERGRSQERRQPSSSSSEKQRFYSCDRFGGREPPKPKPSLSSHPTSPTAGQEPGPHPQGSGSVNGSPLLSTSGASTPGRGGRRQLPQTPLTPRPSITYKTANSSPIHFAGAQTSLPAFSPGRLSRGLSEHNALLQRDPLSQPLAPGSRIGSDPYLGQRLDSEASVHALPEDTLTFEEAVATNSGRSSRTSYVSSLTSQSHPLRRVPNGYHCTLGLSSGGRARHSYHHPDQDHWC
T1 sequence (P54289 25-956 partner limits assumed): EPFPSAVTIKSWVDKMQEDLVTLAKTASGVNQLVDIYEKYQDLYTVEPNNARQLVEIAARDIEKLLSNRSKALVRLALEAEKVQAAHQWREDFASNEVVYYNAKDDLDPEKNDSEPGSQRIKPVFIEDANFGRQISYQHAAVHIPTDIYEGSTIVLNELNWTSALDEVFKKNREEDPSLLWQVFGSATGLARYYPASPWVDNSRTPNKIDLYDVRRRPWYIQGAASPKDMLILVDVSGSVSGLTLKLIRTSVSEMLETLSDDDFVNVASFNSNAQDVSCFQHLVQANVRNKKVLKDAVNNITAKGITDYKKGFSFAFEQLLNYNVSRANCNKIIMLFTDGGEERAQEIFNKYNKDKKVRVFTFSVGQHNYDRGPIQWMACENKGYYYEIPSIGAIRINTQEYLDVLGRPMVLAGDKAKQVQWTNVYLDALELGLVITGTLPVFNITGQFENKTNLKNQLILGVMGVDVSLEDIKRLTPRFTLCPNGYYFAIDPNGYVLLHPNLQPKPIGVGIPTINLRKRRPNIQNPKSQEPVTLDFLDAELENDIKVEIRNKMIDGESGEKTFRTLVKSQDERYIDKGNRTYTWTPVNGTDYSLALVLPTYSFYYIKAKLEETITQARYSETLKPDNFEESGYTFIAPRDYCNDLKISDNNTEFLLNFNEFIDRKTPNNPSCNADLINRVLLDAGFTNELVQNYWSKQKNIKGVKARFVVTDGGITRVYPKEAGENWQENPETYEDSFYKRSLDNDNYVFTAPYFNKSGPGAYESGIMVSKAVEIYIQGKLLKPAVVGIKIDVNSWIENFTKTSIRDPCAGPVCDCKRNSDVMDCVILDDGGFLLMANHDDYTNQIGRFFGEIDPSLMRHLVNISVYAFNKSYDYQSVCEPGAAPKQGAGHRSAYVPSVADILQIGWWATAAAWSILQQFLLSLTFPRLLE
T1 sequence (P54289 957-1103 partner limits assumed): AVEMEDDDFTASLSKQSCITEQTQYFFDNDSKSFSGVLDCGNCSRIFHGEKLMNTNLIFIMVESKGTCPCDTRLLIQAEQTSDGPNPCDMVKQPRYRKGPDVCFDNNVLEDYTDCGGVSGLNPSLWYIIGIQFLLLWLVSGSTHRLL
T1 sequence (P54284 whole entry partner): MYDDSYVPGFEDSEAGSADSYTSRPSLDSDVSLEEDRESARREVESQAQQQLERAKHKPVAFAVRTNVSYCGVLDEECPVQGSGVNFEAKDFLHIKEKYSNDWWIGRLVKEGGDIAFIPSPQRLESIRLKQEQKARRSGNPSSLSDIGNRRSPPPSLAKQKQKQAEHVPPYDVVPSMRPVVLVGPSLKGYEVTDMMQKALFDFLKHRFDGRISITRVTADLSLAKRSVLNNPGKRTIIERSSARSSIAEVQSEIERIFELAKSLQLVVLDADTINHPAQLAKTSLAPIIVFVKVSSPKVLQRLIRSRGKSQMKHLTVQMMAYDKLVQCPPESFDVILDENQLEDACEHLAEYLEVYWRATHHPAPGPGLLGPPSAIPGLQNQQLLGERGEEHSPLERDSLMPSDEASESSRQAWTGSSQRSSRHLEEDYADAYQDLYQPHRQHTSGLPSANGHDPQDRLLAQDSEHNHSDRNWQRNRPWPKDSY
Method in brief: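 With L-type flux blocked by 5 μM nitrendipine, N-type Ca2+ entry was read as the Indo-1 emission ratio (400/490 nm, excitation 350 nm) at 30° C after KCl depolarization.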

[3] = test system: K+ channels in superior cervical ganglion (SCG) neurons; assay: Whole-cell voltage clamp, K+ current in SCG neurons; type: cell-based, rat; conditions: 10 μM
Method in brief: (§1)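 Percent inhibition of control amplitude at steady-state block is the read-out: peak inward Na+ current at 0 mV, sustained K+ current at +50 mV, 35 msec steps every 10 sec from −65 to −55 mV. Recordings used whole-cell clamp of trypsin-dissociated SCG neurons, pH 7.4 external and pipette solutions, compounds applied by local perfusion.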

[4] = test system: Na+ channels in superior cervical ganglion (SCG) neurons; assay: Whole-cell voltage clamp, Na+ current in SCG neurons; type: cell-based, rat; conditions: 10 μM
Method in brief: as §1

[5] = molecular target: T2, N-type Ca2+ channels in superior cervical ganglion (SCG) neurons (Rattus norvegicus, UniProt Q02294); assay: Whole-cell voltage clamp, N-type Ca2+ current in SCG neurons; type: cell-based
T2 construct: from tissue
Method in brief: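 Whole-cell voltage clamp of acutely trypsin-dissociated rat SCG neurons, with TEA/choline external solution (2 mM Ca2+) and Cs-methanesulfonate pipette solution. Currents evoked by 150 ms steps to +20 mV from −65 to −55 mV holding, every 40 s; compounds applied locally, effect as % inhibition of control amplitude.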

SMILES | IC50 [1] | inhibition at 1 µM [2] | inhibition at 10 µM [2] | IC50 [2] | Inhibition of K+ Current, % Inhibition at 10 μM [3] | Inhibition of Na+ Current, % Inhibition at 10 μM [4] | inhibition at 10 µM ([5]; 10 μM) | IC50 ([5]; read-out: Inhibition of N-type Ca2+ Current IC50) | melting point
CC(C)C[C@H](NC(=O)N1CCCCCC1)C(=O)N[C@@H](Cc1ccc(OCc2ccccc2)cc1)C(=O)NC(C)(C)C [Example 23, [S-(R*,R*)]-Azepane-1-carboxylic acid {1-[2-(4-benzyloxy-phenyl)-1-tert-butylcarbamoyl-ethylcarbamoyl]-3-methyl-butyl}-amide] | 18 µM | 55% | 95% | 0.58 µM | 61% | 30% | 78% | 3.24 µM | 
Cc1ccc(COc2ccc(C[C@H](NC(=O)[C@H](Cc3ccccc3)NC(=O)N3CCCCCC3)C(=O)OC(C)(C)C)cc2)cc1 [Example 19, [S-(R*,R*)]-2-{2-[(Azepane-1-carbonyl)-amino]-3-phenyl-propionylamino}-3-[4-(4-methyl-benzyloxy)-phenyl]-propionic acid tert-butyl ester] | 4.3 µM | 68% | 91% | 0.5 µM |  |  |  |  | 87 to 90 °C
